Measured values: patent publication US4916135A, “N-heteroaryl-4-quinolinamines” (priority 1989, dated 1990)
Counter-ions that a name gives are not always drawn. Like-named read-outs stand apart in the source and are kept apart here.

Legend:
[1] = tested on: Scopolamine Induced Memory Deficit; assay: scopolamine-induced Dark Avoidance Assay; assay type: in vivo; settings: s.c., mice, 24 hours
Protocol: In this assay mice are tested for their ability to remember an unpleasant stimulus for a period of 24 hours. A mouse is placed in a chamber that contains a dark compartment; a strong incandescent light drives it to the dark compartment, where an electric shock is administered through metal plates on the floor. The animal is removed from the testing apparatus and tested again, 24 hours later, for the ability to remember the electric shock.
If scopolamine, an anticholinergic that is known to cause memory impairment, is administered before an animal's initial exposure to the test chamber, the animal re-enters the dark compartment shortly after being placed in the test chamber 24 hours later. This effect of scopolamine is blocked by an active test compound, resulting in a greater interval before re-entry into the dark compartment.
The results for an active compound are expressed as the percent of a group of animals in which the effect of scopolamine is blocked, as manifested by an increased interval between being placed in the test chamber and re-entering the dark compartment.
Test results of scopolamine-induced Dark Avoidance Assay for representative compounds of this invention are presented in Table 2 along with that of a reference compound.

[2] = tested on: 2-phenyl-1,4-benzoquinone-induced writhing; assay: 2-phenyl-1,4-benzoquinone-induced writhing (PQW) test in mice (analgesic activity); assay type: in vivo; settings: for inhibition in vivo at 20 mg/kg: Mus musculus, sc, read-out: PQW Percent inhibition
Protocol: Compounds I of the present invention are useful as analgesic agents due to their ability to alleviate pain in mammals. […] Exptl. Biol. Med., 95, 729 (1957)].
The results of some of the compounds of this invention (expressed in terms of percent inhibition at 20 mg/kg, s.c.) are shown in Table 1 along with that of a prior art compound.

Row | Molecule | inhibition in vivo at 20 mg/kg ([2]; at 20 mg/kg, s.c., mice) [%] | further results
1 | CNC(=O)Oc1ccc2c(c1)[C@]1(C)CCN(C)[C@@H]1N2C [Physostigmine, reference compound] |  | % of Animals with Scopolamine Induced Memory Deficit Reversal ([1]; 0.31 mg/kg of body weight): 20%
2 | Cl.c1ccc2c(Nn3cccc3)c3c(nc2c1)CCCC3 [N-(1H-Pyrrol-1-yl)-1,2,3,4-tetrahydro-9-acridinamine hydrochloride] |  | inhibition in vivo at 20 mg/kg [2]: 43%; % of Animals with Scopolamine Induced Memory Deficit Reversal ([1]; 0.63 mg/kg of body weight): 20%
3 | CCCN(c1ccnc2cc(Cl)ccc12)n1ccc(C=O)c1 [1-[(7-Chloro-4-quinolinyl)propylamino]-1H-pyrrole-3-carboxaldehyde] | 42 | 
4 | c1ccc2c(c1)ccn2Nc1ccnc2ccccc12 [N-(1H-Indol-1-yl)-4-quinolinamine maleate] | 32 | 
5 | CCCN(c1ccnc2ccccc12)n1c2ccccc2c2ccccc21 [N-Propyl-N-(4-quinolinyl)-9H-carbazol-9-amine] | 55 | 
6 | CCCN(c1c2c(nc3ccccc13)CCCC2)n1cc(C)c2ccccc21 [N-(3-Methyl-1H-indol-1-yl)-N-propyl-1,2,3,4-tetrahydro-9-acridinamine] | 42 | 
7 | C#CCn1ccc(=Nn2cccc2)c2ccc(Cl)cc21 [7-Chloro-1-(2-propynyl)-N-(1H-pyrrol-1-yl)-4(1H)-quinolinimine] | 48 | 
8 | CCCN(c1ccnc2cc(Cl)ccc12)n1cccc1.O=C(O)/C=C\C(=O)O [7-Chloro-N-propyl-N-(1H-pyrrol-1-yl)-4-quinolinamine maleate] | 42 | % of Animals with Scopolamine Induced Memory Deficit Reversal ([1]; 0.31 mg/kg of body weight): 20%
9 | Cc1cn(Nc2ccnc3ccccc23)c2ccccc12 [N-(3-Methyl-1H-indol-1-yl)-4-quinolinamine hydrochloride] | 44 | 
10 | c1ccc2c(Nn3c4ccccc4c4ccccc43)ccnc2c1 [N-(4-Quinolinyl)-9H-carbazol-9-amine hydrochloride] | 30 | 
11 | Clc1ccc2c(Nn3cccc3CN3CCCCC3)ccnc2c1 [7-Chloro-N-[2-(1-piperidinyl)methyl-1H-pyrrol-1-yl]-4-quinolinamine] | 35 | 
12 | Cl.c1ccc2c(Nn3cccc3)ccnc2c1 [N-(1H-Pyrrol-1-yl)-4-quinolinamine hydrochloride] | 26 | % of Animals with Scopolamine Induced Memory Deficit Reversal ([1]; 0.16 mg/kg of body weight): 47%
13 | Cl.FC(F)(F)c1ccc2c(Nn3cccc3)ccnc2c1 [N-(1H-Pyrrol-1-yl)-7-trifluoromethyl-4-quinolinamine hydrochloride] | 48 | % of Animals with Scopolamine Induced Memory Deficit Reversal ([1]; 1.25 mg/kg of body weight): 40%
14 | CCCN(c1ccnc2cc(Cl)ccc12)n1cccc1C=O [1-[(7-Chloro-4-quinolinyl)propylamino]-1H-pyrrole-2-carboxaldehyde] | 31 | 
15 | Propoxyphene [reference compound] |  | PQW Percent inhibition ([2]; at 3.9 mg/kg, s.c., mice, reference compound): 50%
16 | CCCN(c1ccnc2ccccc12)n1cccc1 [N-Propyl-N-(1H-pyrrol-1-yl)-4-quinolinamine] | 33 | % of Animals with Scopolamine Induced Memory Deficit Reversal ([1]; 0.16 mg/kg of body weight): 33%
17 | CCN(CC)Cc1cccn1Nc1ccnc2cc(Cl)ccc12 [7-Chloro-N-(2-diethylaminomethyl-1H-pyrrol-1-yl)-4-quinolinamine] | 55 | 
